Entries after “also recorded” stand apart in the source; their conditions may differ. Read-outs that look alike come from different tables or passages of the source.
Experiments:
[1] = Solubility in methanol, ethanol, 95% ethanol; format: physicochemical
Text: Dual solvent systems were used, comprising methanol and ether, by dissolving the salt in a small volume of methanol and then adjusting the solubility by adding ether to the point of slight cloudiness. These samples then remained in the reaction vessel as needed to precipitate.

[2] = Pharmacokinetics of aqueous suspensions in mice; conditions: for Cmax: equimolar dose 10 mg/kg of free base, plasma Compound 1
Method: (§1) Blood was sampled with microbleeds frequently to produce the pharmacokinetics curves (AUCs).
(§2) The dosing suspension was analyzed before administration to the animals to ensure that the actual concentration was known.

[3] = mouse, in vivo, 10 mg/kg
Method: as §1, §2

[4] = Dissolution behaviour in water; format: physicochemical
Method: Pharmaceutically acceptable salts were prepared using tartaric acid, fumaric acid, and phosphoric acid.

[5] = mice; cited from earlier work
[6] = Solubility and plasma levels of Compound 1 (general statements); format: physicochemical
Text: There is a significant, unmet need for means to administer Compound 1 to treat diseases or disorders, such as diseases or disorders associated with neuroinflammation. The present disclosure fulfills these and other needs, as evident in reference to the following disclosure.
To improve solubility, attempts to prepare acid addition salts from suitably acidic carboxylic acids (e.g., fumaric acid, maleic acid, citric acid, tartaric acid), standard mineral acids (e.g., hydrobromic acid, sulfuric acid, phosphoric acid), and sulfonic acids (e.g., toluenesulfonic acid, methanesulfonic acid, ethanesulfonic acid, benzenesulfonic acid), were conducted.

[7] = mice, aqueous suspension, 10 mg/kg of free base
[8] = mice, aqueous suspension, 10 mg/kg of free base, 10 mg/kg

CN1CCN(Cc2ccc(-c3cnc4[nH]cc(-c5ccc6[nH]ccc6c5)c4c3)cc2)CC1 [Phosphate, 3-(1H-indol-5-yl)-5-[4-[(4-methyl-1-piperazinyl)methyl]phenyl]-1H-pyrrolo[2,3-b]pyridine]
solubility in methanol, ethanol or 95% ethanol [1]: least soluble in methanol of the three salts tested
solubility in methanol, ethanol or 95% ethanol ([1]; listed as Phosphoric Acid): low in methanol
Tmax [2, 7]: 6.00 h
exposure compared with free base [2, 7]: superior to the free base in key pharmacokinetic measures
AUClast ([2]; mice, aqueous suspension, 10 mg/kg of free base, 6-hour study, 10 mg/kg): 230 ng·h/mL
Mean plasma concentration at 0.67 hr ([2]; mice, aqueous suspension, 10 mg/kg of free base, 0.67 hr, 10 mg/kg): 2.71 ng/mL
Mean plasma concentration at 1.0 hr [2, 8]: 7.32 ng/mL
Mean plasma concentration at 1.5 hr [2, 8]: 21.9 ng/mL
Mean plasma concentration at 2.0 hr ([2]; mice, aqueous suspension, 10 mg/kg of free base, 2.0 hr, 10 mg/kg): 31.7 ng/mL
Mean plasma concentration at 4.0 hr ([2]; mice, aqueous suspension, 10 mg/kg of free base, 4.0 hr, 10 mg/kg): 48.3 ng/mL
Cmax ([2]; mice, aqueous suspension, 10 mg/kg): 78 ng/mL
concentration at 0.33 h ([2]; mouse, plasma, oral, 10 mg/kg, Mean plasma concentration at 0.33 hr, mice, aqueous suspension, 10 mg/kg of free base, 0.33 hr): 0.679 ng/mL

CN1CCN(Cc2ccc(-c3cnc4[nH]cc(-c5ccc6[nH]ccc6c5)c4c3)cc2)CC1 [Fumarate, 3-(1H-indol-5-yl)-5-[4-[(4-methyl-1-piperazinyl)methyl]phenyl]-1H-pyrrolo[2,3-b]pyridine]
solubility in methanol, ethanol or 95% ethanol [1]: dissolved readily in hot methanol

tartrate salt of 3-(1H-indol-5-yl)-5-[4-[(4-methyl-1-piperazinyl)methyl]phenyl]-1H-pyrrolo[2,3-b]pyridine
AUClast [3]: 259 ng·h/mL
Cmax [3]: 66.9 ng/mL
Mean plasma concentration at 0.33 hr [3]: 4.24 ng/mL
Mean plasma concentration at 0.67 hr [3]: 8.2 ng/mL
Mean plasma concentration at 1.0 hr [3]: 15.2 ng/mL
Mean plasma concentration at 1.5 hr [3]: 31.4 ng/mL
Mean plasma concentration at 2.0 hr [3]: 38.8 ng/mL
Mean plasma concentration at 4.0 hr [3]: 63.4 ng/mL
Tmax [3]: 4.67 h
kinetic dissolution in water [4]: fastest to kinetically dissolve

CN1CCN(Cc2ccc(-c3cnc4[nH]cc(-c5ccc6[nH]ccc6c5)c4c3)cc2)CC1 [Compound 1, 3-(1H-indol-5-yl)-5-[4-[(4-methyl-1-piperazinyl)methyl]phenyl]-1H-pyrrolo[2,3-b]pyridine]
pharmacokinetic properties and CNS penetration [5]: excellent pharmacokinetic properties and central nervous system (CNS) penetration
solubility in methanol, ethanol or 95% ethanol ([1]; listed as free base): not very soluble in methanol, ethanol, or 95% ethanol at room temperature
Mean plasma concentration at 0.33 hr ([2]; mice, aqueous suspension, 10 mg/kg of free base, 0.33 hr, 10 mg/kg): LLQ
Mean plasma concentration at 1.0 hr [2, 8]: 1.91 ng/mL
Mean plasma concentration at 1.5 hr [2, 8]: 10.0 ng/mL
concentration at 0.67 h ([2]; mouse, plasma, oral, 10 mg/kg, Mean plasma concentration at 0.67 hr, mice, aqueous suspension, 10 mg/kg of free base, 0.67 hr): 1.46 ng/mL
concentration at 2 h ([2]; mouse, plasma, oral, 10 mg/kg, Mean plasma concentration at 2.0 hr, mice, aqueous suspension, 10 mg/kg of free base, 2.0 hr): 20.4 ng/mL
concentration at 4 h ([2]; mouse, plasma, oral, 10 mg/kg, Mean plasma concentration at 4.0 hr, mice, aqueous suspension, 10 mg/kg of free base, 4.0 hr): 46.9 ng/mL
Tmax ([2]; mouse, plasma, po, 10 mg/kg): 6 h
AUC(0-t) ([2]; mouse, plasma, po, 10 mg/kg, AUClast, mice, aqueous suspension, 10 mg/kg of free base, 6-hour study): 181 ng·h/mL
Cmax ([2]; mouse, plasma, po, 10 mg/kg, Cmax, mice, aqueous suspension): 56.3 ng/mL
plasma serum levels upon administration without excipients such as DMSO [6]: only low plasma serum levels
solubility in water / aqueous and organic carriers [6]: insoluble in water; also recorded: limited solubility in typical aqueous and organic carriers

Reference: patent publication US11661409B1, “Acid addition salts, compositions, and methods of treating” (Pioneura Corporation, priority 2022, dated 2023)
